# Data as given in US20040248766A1, “Selective inhibition of intracellular amyloid-beta neurotoxicity in human neurons” (priority 2001, published 2004).
# Where “and” joins values, the source holds several entries; their conditions need not be identical. Equal entries are not always repeated. Entries after “also recorded” stand apart in the source; their conditions may differ.
# Assays:
# human neurons [1] = experiment: Neuronal cell death caused by the agent alone (without Aβ1-42); assay type: cell-based; details: 20 mM, DTR-injected neurons, 24 hours
# Description: (§1) Measurement of neuronal apoptosis. Cells were fixed in freshly prepared 4% paraformaldehyde/4% sucrose for 20 minutes at room temperature and permeabilized in 0.1% Triton X-100, 0.1% sodium citrate on ice for 2 minutes. Terminal deoxynucleotidyl transferase-mediated dUTP nick end labeling (TUNEL) was performed using the In Situ Cell Death Detection Kit I as described by the manufacturer (Roche Molecular Biochemicals).
# [2] = system: Aβ1-42-mediated neuronal cell death; experiment: Inhibition of Aβ1-42-mediated neuronal cell death in Aβ1-42-microinjected neurons, TUNEL; assay type: cell-based, human; details: 20 mM, 1 hour pre-incubation, 24 hours
# Description: cDNA Clones. Human Bcl-2 cDNA, Bax α cDNA, and APP695 cDNA were cloned into pCep4β (Invitrogen Canada, Burlington, ON, Canada). The p53 wild type and p53R273H dominant negative cDNA may be cloned in the pCMV-NEO vector. These cDNAs were purified through GlassMAXTM (Gibco-BRL, Rockville, Mass.) and diluted at 30 ng/μl in PBS before injection.
# Neutralizing Bax antibodies. Monoclonal anti-Bax 6A7 (amino acids 12-24: Pharmingen, San Diego, Calif.) and 2D2 (amino acids 3-16: Trevigen, Gaithersburg, Md.), polyclonal anti-Bax N-20 (Santa Cruz Biotechnology, Santa Cruz, Calif.), monoclonal anti-APP 22C11 (Roche Molecular Biochemicals, Laval, PQ, Canada), mouse IgG or rabbit sera were diluted at 50 μg/ml (for 6A7, 2D2, mouse IgG and 22C11) or 25 μg/ml (for polyclonal anti-Bax and rabbit sera) in PBS before use. A toxicity curve was done to determine this concentration as the highest non-toxic concentration that can be injected in neurons.
# (§2) Microinjection. Thin-walled Borosilicate glass capillaries (OD 1.0 mm, ID 0.5 mm) with microfilament (MTW1OOF-4, World Precision Instrument, Sarasota, Fla.) were pulled with a Flaming/Brown Micropipefte Puller (β-87, Sutter, Novato, Calif.) to obtain injection needles with a tip diameter of ˜0.5 μm. Microinjection was performed in the cytosol of each cell using the Eppendorf Microinjector 5246 (Hamburg, Germany) and Burleigh Micromanipulator MIS-5000 (Victor, N.Y.). Human neurons were injected with 25 pl/shot at an injection pressure of 100 hPa, a compensation pressure of 50 hPa, and an injection time of 0.1 s. Human astrocytes, M17, NT2 and La—N-1 cells were injected with 8 pl/shot at an injection pressure of 50 hPa, a compensation pressure of 30 hPa and an injection time of 0.1 s.
# as §1, with “Biochemicals). The percentage of cell death was determined as the ratio of the number of DTR-TLUNEL-double-positive cells over the total number of DIR-positive cells.” for “Biochemicals).”
# Treatment with caspase inhibitors, cycloheximide, actinomycin D. Caspase pan inhibitor, Z-Valine-Alanine-Aspartic acid-fluoromethylketone (Z-VAD-fmk) (Biomol, Plymounth Meeting, PA); caspase-6 inhibitor, Z-Valine-Glutamic acid-Isoleucine-Aspartic acid-fmk (Z-VEID-fnk); caspase-3 inhibitor, Z-Aspartic acid-Glutamic acid-Valine-Aspartic acid-fmk (Z-DEVD-fmk); and caspase-8 inhibitor, Z-Isoleucine-Glutamic acid-Threomine-Aspartic acid-fmk (Z-IETD-fmk) (Sigma, Oakville, ON, Canada) were dissolved in 100% dimethylsulphoxide (DMSO, Sigma) at 5 mM and were diluted at 5 μM into culture medium immediately before use. The medium was changed every 48 hours.
# Stock solutions of 5 mg/ml cycloheximide and 200 IM actinomycin D were made in sterile distilled water and diluted to 5 μg/ml for cycloheximide and 5 μM for actinomycin D in the culture medium immediately before use.
# Dextran Texas Red (DTR) was co-injected with Aβ1-42 to identi the injected cells from the non-injected cells. The experiment was done on 200 microinjected neurons per preparation of neurons and on three independent neuron preparations.
# primary human astrocytes = experiment: Microinjection of Aβ1-42 into primary human astrocytes, TUNEL/Hoechst; assay type: cell-based; details: up to 100 nM / 8×10^−19 moles injected, 24 hours
# Description: Cell cultures. Primary cultures of human neurons and astrocytes were prepared as described in LeBlanc, A., J. Neurosci. 15:7837-46 (1995), incorporated herein by reference. Fresh brain tissues were dissociated with 0.25% trypsin (Gibco-BRL) in phosphate buffered saline (PBS) at 37° C. for 15 minutes. The trypsin was inactivated. by adding 10% decomplemented fetal bovine serum (FBS, HyClone, Logan, Utah.) to the mixture. The dissociated tissues were triturated in 0.1 mg/ml DNaseI (Gibco-BRL) to obtain a homogeneous mixture. The mixture was filtered successively through 130 and 70 gm filters and centrifuged at […] for 10 minutes at 10° C. to pellet the cells. The cell pellet was washed once with PBS and once with minimal essential media (MEM, Gibco-BRL) in Earle's balanced salt solution containing 0.225% sodium bicarbonate, 1 mM sodium pyruvate, 2 mM L-glutamine, 0.1% dextrose, 1×antibiotic Pen-Strep (all from Gibco-BRL) and 5% decomplemented FBS. […]
# Measurement of neuronal apoptosis. […] The percentage of cell death was determined as the ratio of the number of DTR-TLUNEL-double-positive cells over the total number of DIR-positive cells. […]
# Cell death was identified by TUNEL staining and nuclei detected with Hoechst staining. […] The faint green fluorescence detected in these cells is the results of bleed-through from the red DTR fluorescence on the microscope.
# primary human neurons = experiment: Microinjection of Aβ peptides into the cytosol of primary human neurons, cell death by TUNEL; assay type: cell-based; details: for number of molecules toxic (as few as / as little as): microinjected neurons
# Description: Cell cultures. Primary cultures of human neurons and astrocytes were prepared as described in LeBlanc, A., J. Neurosci. 15:7837-46 (1995), incorporated herein by reference. Fresh brain tissues were dissociated with 0.25% trypsin (Gibco-BRL) in phosphate buffered saline (PBS) at 37° C. for 15 minutes. The trypsin was inactivated. by adding 10% decomplemented fetal bovine serum (FBS, HyClone, Logan, Utah.) to the mixture. The dissociated tissues were triturated in 0.1 mg/ml DNaseI (Gibco-BRL) to obtain a homogeneous mixture. The mixture was filtered successively through 130 and 70 gm filters and centrifuged at 15,000 g for 10 minutes at 10° C. to pellet the cells. The cell pellet was washed once with PBS and once with minimal essential media (MEM, Gibco-BRL) in Earle's balanced salt solution containing 0.225% sodium bicarbonate, 1 mM sodium pyruvate, 2 mM L-glutamine, 0.1% dextrose, 1×antibiotic Pen-Strep (all from Gibco-BRL) and 5% decomplemented FBS.
# The cells were plated on poly-L-lysine-coated ACLARTM (Cat. No.: 33C; thickness: 0.5 mm; Allied Chemical, Minneapolis, Minn.) coverslips at a density of 3×10^6 cells/ml. Neurons and astrocytes were incubated at 37° C. in the MEM media with 5% CO2, and the media were changed every 48 hours. For neuron culture, 1 mM fluorodeoxyuridine (FDU, Gibco-BRL) was applied for the first 3 feedings and after that, used weekly to prevent proliferation of dividing cells. […] Microinjection or treatment was performed 10 days after plating for neurons and astrocytes.
# Aβ peptides. Aβ peptides (Bachem, King of Prussia, Pa.) were dissolved in sterile distilled water at 25 μM and incubated at 37° C. for 5 days. The peptides stock solutions were frozen and diluted in 1×PBS immediately before microinjection. […] A 250 μl aliquot was diluted to 0.25 μM and immediately frozen at −20° C. in aliquots of 50 μl. The remaining solution was incubated at 37° C. in Eppendorf tubes with continuous mixing by inversion. After incubation, the samples were removed, vortexed, sonicated twice for 1 minute in a bath type sonicator (ELMA GmbH & Co. KG, Germany) and frozen at −20° C. in […]. Each aliquot was used once to avoid possible effects of freeze and thaw cycles.
# as §2
# The diluted peptides were injected at the indicated concentrations with 100 μg/ml dextran Texas Red (DTR) (MW: 3000, Molecular Probes, Eugene, Oreg.) as a fluorescent marker to recognize the injected cells.
# as §1
# human neurons [3] = experiment: Exposure of human neurons to extracellular Aβ peptides, TUNEL and propidium iodide; assay type: cell-based; details: 10 μM extracellular, 24 hours
# Description: To test if this particular batch of peptide might be neurotoxic, neurons were treated with 10 μM of peptides for 24 hours.
# NIH 3T3 fibroblasts = experiment: Microinjection of Aβ1-42 into NIH 3T3 fibroblasts, TUNEL; assay type: cell-based, mice; details: 24 hours
# [4] = determined in a medium or extracellularly; cited from earlier work
# [5] = system: baby hamster kidney (BHK) cell lines; experiment: Microinjection of Aβ1-42 into BHK cells, TUNEL; assay type: cell-based; details: 24 hours
# [6] = system: human teratocarcinoma NT2; experiment: Microinjection of Aβ1-42 into NT2 cells, TUNEL; assay type: cell-based; details: NT2, up to 8×10^−19 moles injected, 24 hours
# Description: (§3) Human neuroblastoma M17 cells were cultured on ACLAR™ coverslips at 1×10^6 cells/ml in OPTI-MEM (Gibco-BRL) containing 5% FBS. Microinjection was performed when the cells reached 70-80% confluence on the coverslips. Human teratocarcinoma NT2 (Stratagene, La Jolla, Calif.) and neuroblastoma La-N-1 cells were cultured on ACLAR™ coverslips at 1×10^6 cells/ml in DMEM (Gibco-BRL) containing 10% FBS. Microinjection was performed when the cells were 50% confluent.
# as §2, with “Human astrocytes, M17, NT2 and La—N-1 cells were injected with 8 pl/shot at an injection pressure of 50 hPa, a compensation pressure of 30 hPa and an injection time of 0.1 s.” left out
# (§4) Measurement of neuronal apoptosis. […] The percentage of cell death was determined as the ratio of the number of DTR-TLUNEL-double-positive cells over the total number of DIR-positive cells.
# [7] = system: human neuroblastoma La-N-1; experiment: Microinjection of Aβ1-42 into La-N-1 cells, TUNEL; assay type: cell-based; details: La-N-1, up to 8×10^−19 moles injected, 24 hours
# Description: as §3
# as §2, with “Human astrocytes, M17, NT2 and La—N-1 cells were injected with 8 pl/shot at an injection pressure of 50 hPa, a compensation pressure of 30 hPa and an injection time of 0.1 s.” left out
# as §4
# human neuroblastoma M17 = experiment: Microinjection of Aβ1-42 into M17 cells, TUNEL; assay type: cell-based; details: M17, up to 8×10^−19 moles injected, 24 hours
# Description: as §3
# as §2, with “Human astrocytes, M17, NT2 and La—N-1 cells were injected with 8 pl/shot at an injection pressure of 50 hPa, a compensation pressure of 30 hPa and an injection time of 0.1 s.” left out
# as §4
molecule,measurement,setting,value
[Cl-].[Li+] [LiCl2],cell death with agent and DTR only (in words),human neurons [1],did not undergo cell death
same,protection against intracellular Aβ1-42 toxicity (in words),[2],efficiently protected
"Aβ1-42: 42 amino acid amyloid β peptide (SEQ ID NO: 2), aged 5 days at 37° C.",intracellular toxicity (in words),primary human astrocytes,"not observed to be toxic; also recorded: completely resist; also recorded: do not show any sign of condensed chromatin by Hoechst staining, nor positive nuclei TUNEL staining"
same,intracellular toxicity (in words),primary human astrocytes; listed as Aβ42,remain resistant
same,cell death of microinjected neurons,"primary human neurons; 10 nM aged peptide, 48 hours after injection",78%
same,amount delivered into the neuron cytosol sufficient to induce rapid neuronal death,primary human neurons; 25 pl/shot of 10 nM,2.5e-19 mol
same,apoptosis of microinjected neurons,"primary human neurons; 25×10^−21 moles intracellular, within 24 hours after injection",70%
same,cell death of microinjected neurons,primary human neurons; 100-fold dilution in the amount injected (25 pl/shot of 10 nM),50%
same,number of molecules giving 50% toxicity,primary human neurons; based on the Avogadro number,1505.5 molecules/neuron
same,number of molecules injected giving maximal toxicity,primary human neurons; based on the Avogadro number,"150,055 molecules"
same,toxic concentration of injected peptide in the cytosol,primary human neurons; calculated from injected moles and cytosolic volume 2.5 nL,1 pM and 1 to 100 pM
same,number of molecules toxic (as few as / as little as),primary human neurons,1500 molecules
same,number of molecules toxic (as few as / as little as),primary human neurons; listed as Aβ42,150.5 molecules
same,intracellular toxicity to human neurons (in words),primary human neurons; peptide microinjected into cytosol,rapidly induces cell death
same,reduction of concentration that still exerts significant toxicity,"primary human neurons; relative to 25×10^−21 moles/cell, FIG. 1C",100 to 1000 fold
same,toxicity of extracellular peptide (in words),human neurons [3],"do not undergo cell death; also recorded: Neither extracellular Aβ1-40, Aβ1-42, or Aβ40-1 are toxic"
same,intracellular toxicity (in words),NIH 3T3 fibroblasts,not observed to be toxic; also recorded: fails to induce cell death
same,toxic concentration known in the art,[4],10 to 100 µM
same,intracellular toxicity (in words),[5],not observed to be toxic; also recorded: fails to induce cell death
same,intracellular toxicity (in words),[6],not observed to be toxic; also recorded: completely resist; also recorded: fails to induce cell death
same,intracellular toxicity (in words),[6]; listed as Aβ42,remain resistant
same,intracellular toxicity (in words),[7],not observed to be toxic; also recorded: completely resist; also recorded: fails to induce cell death
same,intracellular toxicity (in words),[7]; listed as Aβ42,remain resistant
same,intracellular toxicity (in words),human neuroblastoma M17,not observed to be toxic; also recorded: completely resist; also recorded: fails to induce cell death
same,intracellular toxicity (in words),human neuroblastoma M17; listed as Aβ42,remain resistant
